Experimental data reported in patent publication US12247022B2, “Combinations for treatment of NASH/NAFLD and related diseases” (Pfizer Inc., priority 2018, dated 2025).
Structures can show the parent of a compound that is named as a salt.

Assay: Thermodynamic stability of crystalline form versus water activity
Format: physicochemical
Conditions: ambient temperature; about 0.2 (20% RH)

| water activity at which the form is thermodynamically stable | Compound |
| --- | --- |
| < 0.2 | COc1cc(C(=O)N2CCC3(CC2)CC(=O)c2c(cnn2C(C)C)C3)cc(-c2ccc(C(=O)O)cc2)n1 [Form 1 of Compound A, 4-(4-(1-isopropyl-7-oxo-1,4,6,7-tetrahydrospiro[indazole-5,4′-piperidine]-1′-carbonyl)-6-methoxypyridin-2-yl)benzoic acid anhydrous tris salt] |
| > 0.2 | COc1cc(C(=O)N2CCC3(CC2)CC(=O)c2c(cnn2C(C)C)C3)cc(-c2ccc(C(=O)O)cc2)n1 [Form 2 of Compound A] |
